These are literature values, as cited in US20100105750A1, “STABLE METRONIDAZOLE GEL FORMULATIONS” (NYCOMED US INC., priority 2008, published 2010).

Consider `OCc1ccccc1` [benzyl alcohol], for which the water soluble is 4 g/100 mL.
